# Molecular target: T1, human TRPM8 (Homo sapiens, UniProt Q7Z2W7)
# T1 construct: expressed in transfected cells; host or cells: Chinese hamster ovary (CHO) cells, T-REx tetracycline-inducible system, co-transfected with aequorin
# Experiment: Luminescence readout assay for measuring intracellular calcium, icilin activation
# Type: cell-based
# Details: CHO cells expressing human TRPM8, aequorin luminescence, 1 μM icilin activation; read-out: hTRPM8 IC50
# Experimental: Luminescence Readout Assay for Measuring Intracellular Calcium.
# A stable Chinese hamster ovary cell line expressing human TRPM8 was generated using tetracycline inducible T-REx™ expression system from Invitrogen, Inc. (Carlsbad, Calif.). […] Twenty four hours before the assay, cells were seeded in 96-well plates and TRPM8 expression was induced with 0.5 μg/mL tetracycline. […] Potential antagonists were added 2.5 min prior to the addition of agonist, 1 μM icilin, 100 μM L-menthol, or 1 min prior to the addition of cold buffer (<10° C.). The luminescence was measured by a CCD camera based FLASH-luminometer built by Amgen, Inc. A cooling device attached to FLASH luminometer was used for cold activation.
# T1 sequence (Q7Z2W7 whole entry): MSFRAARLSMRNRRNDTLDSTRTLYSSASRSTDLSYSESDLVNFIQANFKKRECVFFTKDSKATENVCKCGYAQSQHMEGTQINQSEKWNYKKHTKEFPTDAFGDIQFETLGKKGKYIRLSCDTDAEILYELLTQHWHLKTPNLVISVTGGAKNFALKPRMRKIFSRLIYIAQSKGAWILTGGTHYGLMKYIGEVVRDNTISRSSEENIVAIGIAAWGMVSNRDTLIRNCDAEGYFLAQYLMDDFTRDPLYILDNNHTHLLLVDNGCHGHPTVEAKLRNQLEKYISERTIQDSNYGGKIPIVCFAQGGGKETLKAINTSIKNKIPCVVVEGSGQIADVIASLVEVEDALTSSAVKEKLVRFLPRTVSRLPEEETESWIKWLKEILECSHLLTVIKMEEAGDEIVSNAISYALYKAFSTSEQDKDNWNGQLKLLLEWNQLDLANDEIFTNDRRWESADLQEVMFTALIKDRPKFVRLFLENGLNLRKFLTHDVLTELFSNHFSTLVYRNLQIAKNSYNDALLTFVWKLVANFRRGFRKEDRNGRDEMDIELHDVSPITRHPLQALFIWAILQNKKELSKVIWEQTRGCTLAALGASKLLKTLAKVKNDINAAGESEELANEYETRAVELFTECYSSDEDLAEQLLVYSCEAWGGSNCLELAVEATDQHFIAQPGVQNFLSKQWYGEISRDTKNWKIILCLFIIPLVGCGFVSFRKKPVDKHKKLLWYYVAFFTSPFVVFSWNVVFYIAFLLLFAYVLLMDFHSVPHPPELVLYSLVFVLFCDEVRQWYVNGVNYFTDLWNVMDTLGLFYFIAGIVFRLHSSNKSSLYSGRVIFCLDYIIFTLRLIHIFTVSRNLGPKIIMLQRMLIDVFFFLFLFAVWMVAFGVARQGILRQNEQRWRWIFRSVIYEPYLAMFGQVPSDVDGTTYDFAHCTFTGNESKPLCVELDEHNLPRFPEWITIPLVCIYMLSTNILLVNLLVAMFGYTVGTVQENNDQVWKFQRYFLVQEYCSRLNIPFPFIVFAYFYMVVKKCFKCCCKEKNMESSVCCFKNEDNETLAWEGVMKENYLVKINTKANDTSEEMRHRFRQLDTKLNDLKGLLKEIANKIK
row,SMILES,IC50
1,"CC(C)(C(=O)O)C(=O)N[C@@H](c1ccc(C(F)(F)F)cc1)c1ncccc1C(F)(F)F [Example 243, (S)-2,2-dimethyl-3-oxo-3-(((4-(trifluoromethyl)phenyl)(3-(trifluoromethyl)pyridin-2-yl)methyl)amino)propanoic acid]",1.44 µM
2,"N#Cc1ccccc1C(=O)N[C@@H](c1ccc(C(F)(F)F)cc1)c1ncccc1C(F)(F)F [Example 197, (S)-2-cyano-N-((4-(trifluoromethyl)phenyl)(3-(trifluoromethyl)pyridin-2-yl)methyl)benzamide]",0.115 µM
3,"O=C(N[C@@H](c1ccc(OC(F)(F)F)cc1)c1ncccc1F)c1ccc(=O)[nH]n1 [Example 350, (S)-N-((3-fluoropyridin-2-yl)(4-(trifluoromethoxy)phenyl)methyl)-6-oxo-1,6-dihydropyridazine-3-carboxamide]",0.0227 µM
4,"O=C(N[C@@H](c1ccc(C(F)(F)F)cc1)c1ncccc1F)c1ccc2[nH]cnc2c1 [Example 392, (S)-N-((3-fluoropyridin-2-yl)(4-(trifluoromethyl)phenyl)methyl)-1H-benzo[d]imidazole-5-carboxamide]",0.0076 µM
5,"O=C(N[C@@H](c1ccc(C(F)(F)F)cc1)c1ncccc1C(F)(F)F)c1cc(O)ccn1 [Example 62, (S)-4-hydroxy-N-((4-(trifluoromethyl)phenyl)(3-(trifluoromethyl)pyridin-2-yl)methyl)picolinamide]",0.172 µM
6,"Cc1cccnc1[C@@H](NC(=O)c1ccc2nccn2c1)c1ccc(C(F)(F)F)cc1 [Example 314, (S)-N-((3-methylpyridin-2-yl)(4-(trifluoromethyl)phenyl)methyl)imidazo[1,2-a]pyridine-6-carboxamide]",0.0218 µM
7,"Cc1cccnc1[C@@H](NC(=O)c1ccc(=O)[nH]c1)c1ccc(C(F)(F)F)cc1 [Example 82, (S)-N-((3-methylpyridin-2-yl)(4-(trifluoromethyl)phenyl)methyl)-6-oxo-1,6-dihydropyridine-3-carboxamide 2,2,2-trifluoroacetate]",0.0177 µM
8,"O=C1CCCC(C(=O)N[C@@H](c2ccc(C(F)(F)F)cc2)c2ncccc2C(F)(F)F)C1 (stereo partly drawn) [Example 223, 3-oxo-N-((S)-(4-(trifluoromethyl)phenyl)(3-(trifluoromethyl)pyridin-2-yl)methyl)cyclohexanecarboxamide]",0.599 µM
9,"O=C(N[C@@H](c1ccc(Cl)c(F)c1)c1ncccc1F)c1ccc(=O)[nH]c1 [Example 344, (S)-N-((4-chloro-3-fluorophenyl)(3-fluoropyridin-2-yl)methyl)-6-oxo-1,6-dihydropyridine-3-carboxamide]",0.0451 µM
10,"O=C1Cc2ccc(C(=O)N[C@@H](c3ccc(C(F)(F)F)cc3)c3ncccc3C(F)(F)F)cc2N1 [Example 69, (S)-2-oxo-N-((4-(trifluoromethyl)phenyl)(3-(trifluoromethyl)pyridin-2-yl)methyl)indoline-6-carboxamide]",0.0129 µM
11,"O=C(N[C@@H](c1ccc(F)c(F)c1)c1ncccc1F)c1ccc(=O)[nH]c1 [Example 331, (S)-N-((3,4-difluorophenyl)(3-fluoropyridin-2-yl)methyl)-6-oxo-1,6-dihydropyridine-3-carboxamide]",0.965 µM
12,"O=C(N[C@@H](c1ccc(C(F)(F)F)cc1)c1ncccc1C(F)(F)F)c1cccc(F)c1 [Example 227, (S)-3-fluoro-N-((4-(trifluoromethyl)phenyl)(3-(trifluoromethyl)pyridin-2-yl)methyl)benzamide]",0.0414 µM
13,"O=C(N[C@@H](c1ccc(C(F)(F)F)cc1)c1ncccc1C(F)(F)F)c1ccno1 [Example 220, (S)-N-((4-(trifluoromethyl)phenyl)(3-(trifluoromethyl)pyridin-2-yl)methyl)isoxazole-5-carboxamide]",0.164 µM
14,"Cc1ccc(C(NC(=O)c2ccc(=O)[nH]c2)c2ccc(OC(F)(F)F)c(F)c2)nc1 (centres unmarked) [Example 424, N-((3-fluoro-4-(trifluoromethoxy)phenyl)(5-methylpyridin-2-yl)methyl)-6-oxo-1,6-dihydropyridine-3-carboxamide]",0.092 µM

# Reference: patent US8710043B2, “TRPM8 antagonists and their use in treatments” (Amgen Inc., priority 2011, dated 2014)
